{"source": "paper PMC11637378", "about": "“Optogenetic screening of MCT1 activity implicates a cluster of non-steroidal anti-inflammatory drugs (NSAIDs) as inhibitors of lactate transport” (PLOS ONE, 2024)"}
{"tested_on": "parent strain (SAWy518)", "units": {"OffScreen_percentage": "percentage", "Read_percentage": "percentage"}}
{"compound": "Nc1c2ccccc2nc2ccccc12", "note": "[AMINACRINE]", "Offscreen_18hr": 0.3466, "Offscreen_24hr": 0.4931, "Offscreen_42hr": 0.7904}
{"compound": "CCN(CC)C(=S)SSC(=S)N(CC)CC", "note": "[Tetraethylthiuram disulfide]", "Offscreen_18hr": 0.0416, "Offscreen_24hr": 0.0418, "Offscreen_42hr": 0.0415}
{"compound": "Cc1ccc(S(=O)(=O)/C=C/C#N)cc1", "note": "[Bay 11-7082]", "Offscreen_18hr": 0.1157, "Offscreen_24hr": 0.2743, "Offscreen_42hr": 0.896}
{"compound": "CCc1oc2ccccc2c1C(=O)c1cc(Br)c(O)c(Br)c1", "note": "[BENZBROMARONE]", "Offscreen_18hr": 0.5194, "Offscreen_24hr": 0.7137, "Offscreen_42hr": 0.8516}
{"compound": "CSc1nc2cc(Cl)c(Oc3cccc(Cl)c3Cl)cc2[nH]1", "note": "[TRICLABENDAZOLE]", "Offscreen_18hr": 0.3546, "Offscreen_24hr": 0.5896, "Offscreen_42hr": 0.8341}
{"compound": "Cc1cc(C(C)(C)CC(C)(C)C)ccc1OCCOCC[N+](C)(C)Cc1ccccc1.[Cl-]", "note": "[METHYLBENZETHONIUM CHLORIDE]", "Offscreen_18hr": 0.7745, "Offscreen_24hr": 0.875, "Offscreen_42hr": 0.932}
{"compound": "O=C1NC(=O)/C(=C/c2ccc(-c3ccc(F)cc3O)o2)S1", "note": "[AS-252424]", "Offscreen_18hr": 0.6896, "Offscreen_24hr": 0.8289, "Offscreen_42hr": 0.8951}
{"compound": "CC[C@@H](C(=O)[C@@H](C)[C@@H](O)[C@H](C)[C@@H]1O[C@@H]([C@@H](CC)C(=O)[O-])CC[C@@H]1C)[C@H]1OC2(C=C[C@@H](O)[C@]3(CC[C@@](C)([C@H]4CC[C@](O)(CC)[C@H](C)O4)O3)O2)[C@H](C)C[C@@H]1C.[Na+]", "note": "(some centres unmarked) [SALINOMYCIN, SODIUM]", "Offscreen_18hr": 0.1472, "Offscreen_24hr": 0.2295, "Offscreen_42hr": 0.8421}
{"compound": "O=C(O)Cc1ccc(-c2ccccc2)cc1", "note": "[FELBINAC]", "Offscreen_18hr": 0.6742, "Offscreen_24hr": 0.7657, "Offscreen_42hr": 0.7971}
{"compound": "CCN(CC)C(=O)[C@]1(c2ccccc2)C[C@@H]1CN.Cl", "note": "[Milnacipran hydrochloride]", "Offscreen_18hr": 0.8463, "Offscreen_24hr": 0.9181, "Offscreen_42hr": 0.9801}
{"compound": "CCCc1c(-c2ccc(O)cc2)nn(-c2ccc(O)cc2)c1-c1ccc(O)cc1", "OffScreen_percentage": 98.9963, "Offscreen_18hr": 0.7989, "Offscreen_24hr": 0.9026, "Offscreen_42hr": 0.9515}
{"compound": "N#Cc1ccc(Oc2ccc3c(c2)COB3O)cc1", "note": "[Crisaborole]", "Offscreen_18hr": 0.594, "Offscreen_24hr": 0.7965, "Offscreen_42hr": 0.9431}
{"compound": "CC(C)N(CCC(=O)c1ccc2ccccc2c1)Cc1ccccc1.Cl", "note": "[ZM 39923 HCl]", "Offscreen_18hr": 0.0402, "Offscreen_24hr": 0.0403, "Offscreen_42hr": 0.0401}
{"compound": "OXYCLOZANIDE", "Offscreen_18hr": 0.5071, "Offscreen_24hr": 0.6783, "Offscreen_42hr": 0.7815}
{"compound": "O=C1Nc2ccccc2/C1=C1/Nc2ccccc2/C1=N\\O", "note": "[Indirubin-3'-oxime]", "Offscreen_18hr": 0.6559, "Offscreen_24hr": 0.8248, "Offscreen_42hr": 0.9006}
{"compound": "Nc1ccc(-c2nc3ccc(-c4nc5cc(N)ccc5[nH]4)cc3[nH]2)cc1", "note": "[Ro 90-7501]", "Offscreen_18hr": 0.6647, "Offscreen_24hr": 0.8739, "Offscreen_42hr": 0.9612}
{"compound": "CCCc1c(-c2ccc(O)cc2)nn(-c2ccc(O)cc2)c1-c1ccc(O)cc1", "note": "[Propylpyrazole triol]", "Read_percentage": 98.9963}
{"compound": "N.S=C(S)N1CCCC1", "note": "[Ammonium pyrrolidinedithiocarbamate]", "Offscreen_18hr": 0.6686, "Offscreen_24hr": 0.8623, "Offscreen_42hr": 0.942}
{"compound": "CCC[C@H](NC(=O)/C(C#N)=C/c1cccc(Br)n1)c1ccccc1", "note": "[WP1130]", "Offscreen_18hr": 0.6544, "Offscreen_24hr": 0.8363, "Offscreen_42hr": 0.9253}
